Measured values as given in patent US20040116493A1, “Anti-helicobacterial agents” (priority 2000, published 2004).
≈ marks a conversion by molar mass, not a printed value. Where “and” joins values, the source holds several entries; their conditions need not be identical. Equal entries are not always repeated.

Columns and labels:
[1] = tested on: Helicobacter pylori ATCC 43629; test: Agar plate dilution method, MIC; format: cell-based; conditions: ATCC43629, 96 h; Helicobacter pylori ATCC 43629, BHI agar with 7% horse blood, 4 days
Procedure: (§1) Firstly, the thus-synthesized compound of the present invention (2) was studied for its activity in vitro. For antibacterial activity, an agar plate dilution method was employed. The agar plate dilution method is well known in the art.
(§2) Specifically, a test compound containing the compound of the present invention was dissolved into dimethylsulfoxide, and serially diluted by two fold each time with sterile distilled water to prepare an antibacterial activity sample for the test compound containing the compound of the present invention. A BHI (Brain Heart Infusion) agar with 7% horse blood was used as medium for investigation of the antibacterial activity against H. pylori and H. felis. 1 ml of the sample of the compound of the present invention was added to 9 ml of the medium, followed by mixing to prepare an agar plate for measuring the antibacterial activity. MH (Mueller Hinton) agar medium was used to investigate the antibacterial activities against Pseudomonas aeruginosa, Escherichia coli, Klebsiella pneumoniae, and Staphylococcus aureus; and 10% horse serum-added MH agar medium was used to investigate the antibacterial activities against Streptococcus pneumoniae and Enterococcus faecalis. In both cases, agar plates for measuring the antibacterial activities are prepared in a manner similar to that for H. pylori and H. felis. For H. pylori and H. felis out of the bacteria to be subjected to the tests, 1 ml of each frozen bacterium stock solution was inoculated to 9 ml of 7% bovine fetal serum-added BHI liquid medium, and cultured at 37° C. for 48 hours in a 10% CO2 incubator. Each culture bacterium solution was prepared with the same medium to 10^6 CFU/ml (colony formation unit/milliliter). 5 μl of the prepared bacterium solution was inoculated to the antibacterial activity measuring agar medium, and cultured at 37° C. for 4 days in a 10% CO2 incubator. MH liquid medium was used for Pseudomonas aeruginosa, Escherichia coli, Klebsiella pneumoniae, and Staphylococcus aureus; and 10% horse serum-added MH liquid medium was used for Streptococcus pneumoniae and Enterococcus faecalis. In both cases, 1 ml of each frozen bacterium stock solution was inoculated to 9 ml of the medium, and cultured at 37° C. overnight. Each culture bacterium solution was prepared with the same medium as that had been used in the incubation to 10^6 CFU/ml. 5 μl of the prepared bacterium solution was inoculated to the antibacterial activity measuring agar medium, and cultured at 37° C. overnight.
(§3) The results are represented by MIC (Minimum Inhibitory Concentration).

[2] = tested on: Staphylococcus aureus FDA 209P; test: Agar plate dilution method, MIC; format: cell-based; conditions: FDA209P, MH agar, overnight
Procedure: as §1, §2, §3

[3] = tested on: Enterococcus faecalis ATCC 19433; test: Agar plate dilution method, MIC; format: cell-based; conditions: ATCC19433; Enterococcus faecalis ATCC 19433, 10% horse serum-added MH agar, overnight
Procedure: as §1, §2, §3

[4] = tested on: Helicobacter felis ATCC 49179; test: Agar plate dilution method, MIC; format: cell-based; conditions: ATCC49179, 96 h; Helicobacter felis ATCC 49179, BHI agar with 7% horse blood, 4 days
Procedure: as §1, §2, §3

[5] = tested on: Helicobacter pylori SR-9043; test: Agar plate dilution method, MIC; format: cell-based; conditions: SR9043, 96 h; Helicobacter pylori SR-9043, BHI agar with 7% horse blood, 4 days
Procedure: as §1, §2, §3

[6] = tested on: Streptococcus pneumoniae SR-1003; test: Agar plate dilution method, MIC; format: cell-based; conditions: SR1003; Streptococcus pneumoniae SR-1003, 10% horse serum-added MH agar, overnight
Procedure: as §1, §2, §3

[7] = tested on: Helicobacter pylori ATCC 43504; test: Agar plate dilution method, MIC; format: cell-based; conditions: ATCC43504, 96 h; Helicobacter pylori ATCC 43504, BHI agar with 7% horse blood, 4 days
Procedure: as §1, §2, §3

[8] = tested on: H. pylori ATCC 43504; test: In vivo bacterial eradication test in infected mice; parameters: species or system mice of the ICR strain; conditions: for Bacterial eradication number / bacterial eradication % / Number of each bacterium in stomach: oral, three days; for Bacterial eradication number / bacterial eradication %: 3 samples; for Number of each bacterium in stomach: individual mice, limit of detection log 1.3; for bacterial eradication effect: 40 mg/kg
Procedure: Next, the compound of the present invention was studied as to whether or not it had bacterial eradication activity in vivo. 5-week old mice of the ICR strain from CLEA Japan, Inc. were used. These mice were infected with H. pylori ATCC 43504 (day 0). After the mice had been confirmed to be infected with H. pylori, the dose indicated in Table 3 was administered into the mice twice a day (AM 9 and PM 5) from day 20 to day 22. At day 23 which was the day after the last day of the administration, the mice were dissected and the number of bacteria within their stomachs were counted. The bacteria count measurement was conducted in the following manner. Phosphate buffer was added to the collected stomachs to prepare homogenates. These homogenates were inoculated to 7% horse blood-added agar medium to which various drugs were added in order to suppress the growth of bacteria other than the genus Helicobacter, and cultured at 37° C. for 7 days in a 10% CO2 incubator. The bacterial eradication activity was judged by detecting the presence or absence of the growth of the bacteria.

[9] = tested on: Helicobacter pylori SS1; test: Agar plate dilution method, MIC; format: cell-based; conditions: 96 h; Helicobacter pylori SS1, BHI agar with 7% horse blood, 4 days
Procedure: as §1, §2
(§4) The antibacterial activity of the compound against a subject bacterium (MIC: Minimum Inhibitory Concentration) was a maximum dilution ratio at which the growth of inoculated bacteria was not observed by the unaided eye.
as §3

[10] = tested on: Pseudomonas aeruginosa ATCC 25619; test: Agar plate dilution method, MIC; format: cell-based; conditions: ATCC25619; Pseudomonas aeruginosa ATCC 25619, MH agar, overnight
Procedure: as §1, §2, §4, §3

[11] = tested on: Escherichia coli NIHJ JC-2; test: Agar plate dilution method, MIC; format: cell-based; conditions: NIHJJC2; Escherichia coli NIHJ JC-2, MH agar, overnight
Procedure: as §1, §2, §4, §3

[12] = tested on: Klebsiella pneumoniae ATCC 27736; test: Agar plate dilution method, MIC; format: cell-based; conditions: ATCC27736; Klebsiella pneumoniae ATCC 27736, MH agar, overnight
Procedure: as §1, §2, §4, §3

`CC1(C)S[C@@H]2[C@H](NC(=O)[C@H](N)c3ccc(O)cc3)C(=O)N2[C@H]1C(=O)O` [Amoxicillin, amoxicillin] gave an MIC [1] of 0.1 µg/mL (≈ 0.274 µM), an MIC [2] of 0.05 µg/mL (≈ 0.137 µM) and an MIC [3] of 0.39 µg/mL (≈ 1.07 µM). For the same compound, the MIC [4] was 0.1 µg/mL (≈ 0.274 µM), the MIC [5] was 0.39 µg/mL (≈ 1.07 µM) and the MIC [6] was 0.05 µg/mL (≈ 0.137 µM). For the same compound, the MIC [7] was 0.025 µg/mL (≈ 0.0684 µM), the Bacterial eradication number ([8]; 20 mg/kg twice a day) was 1 and the bacterial eradication % ([8]; 20 mg/kg twice a day) was 33%. The “Number of each bacterium in stomach” value ([8]; 20 mg/kg twice a day) was 1.60 log CFU/stomach and < 1.3 log CFU/stomach, the bacterial eradication effect [8] was “not observed” and the Bacterial eradication number ([8]; 40 mg/kg twice a day) was 2. The bacterial eradication % ([8]; 40 mg/kg twice a day) was 67%, the “Number of each bacterium in stomach” value ([8]; 40 mg/kg twice a day) was <1.3, <1.3, log CFU/stomach (2×) and 1.78 log CFU/stomach and the MIC [9] was 0.39 µg/mL (≈ 1.07 µM). For the same compound, the MIC [10] was greater than 25 µg/mL, the MIC [11] was 6.25 µg/mL (≈ 17.1 µM) and the MIC [12] was 0.2 µg/mL (≈ 0.547 µM).

Work on `CC[C@H]1OC(=O)[C@H](C)[C@@H](O[C@H]2C[C@@](C)(OC)[C@@H](O)[C@H](C)O2)[C@H](C)[C@@H](O[C@@H]2O[C@H](C)C[C@H](N(C)C)[C@H]2O)[C@](C)(OC)C[C@@H](C)C(=O)[C@H](C)[C@@H](O)[C@]1(C)O` [Clarithromycin, clarithromycin] yielded an MIC [1] of 0.1 µg/mL (≈ 0.134 µM), an MIC [2] of 0.05 µg/mL (≈ 0.0668 µM) and an MIC [3] greater than 25 µg/mL. For the same compound, the MIC [4] was less than 0.025 µg/mL, the MIC [5] was greater than 25 µg/mL and the MIC [6] was 0.0125 µg/mL (≈ 0.0167 µM). For the same compound, the MIC [7] was 0.025 µg/mL (≈ 0.0334 µM), the Bacterial eradication number ([8]; 20 mg/kg twice a day) was 0 (0) and the bacterial eradication % ([8]; 20 mg/kg twice a day) was 0 (0) %. The “Number of each bacterium in stomach” value ([8]; 20 mg/kg twice a day) was 2.79 log CFU/stomach and 2.89 log CFU/stomach and 3.37 log CFU/stomach, the bacterial eradication effect [8] was “not observed” and the Bacterial eradication number ([8]; 40 mg/kg twice a day) was 0 (0). The bacterial eradication % ([8]; 40 mg/kg twice a day) was 0 (0) %, the “Number of each bacterium in stomach” value ([8]; 40 mg/kg twice a day) was 1.6, 1.6, log CFU/stomach (2×) and 2.38 log CFU/stomach and the MIC [9] was 0.025 µg/mL (≈ 0.0334 µM). It also gave an MIC [10] greater than 25 µg/mL, an MIC [11] of 12.5 µg/mL (≈ 16.7 µM) and an MIC [12] greater than 25 µg/mL.

Work on `O=C1c2ccc3c4c(ccc(c24)C(=O)N1c1ccccn1)C(=O)N(c1ccccn1)C3=O` [Compound 2, N,N′-bis-(2-pyridyl)naphthalene-1,4,5,8-tetracarboxylate diimide] yielded an MIC [1] of 0.2 µg/mL (≈ 0.476 µM), an MIC [2] greater than 25 µg/mL and an MIC [3] greater than 25 µg/mL. The MIC [4] was 0.1 µg/mL (≈ 0.238 µM), the MIC [5] was 0.39 µg/mL (≈ 0.928 µM) and the MIC [6] was greater than 25 µg/mL. The MIC [7] was 0.2 µg/mL (≈ 0.476 µM), the “bacterial eradication effect (samples)” value ([8]; 20 mg/kg) was 3/3 and the Bacterial eradication number ([8]; 20 mg/kg twice a day) was 3. The bacterial eradication % ([8]; 20 mg/kg twice a day) was 100%, the “Number of each bacterium in stomach” value ([8]; 20 mg/kg twice a day) was <1.3, <1.3, log CFU/stomach (2×) and <1.3 log CFU/stomach and the MIC [9] was 0.1 µg/mL (≈ 0.238 µM). The MIC [10] was greater than 25 µg/mL, the MIC [11] was greater than 25 µg/mL and the MIC [12] was greater than 25 µg/mL.

In the case of `CN1C(=O)c2ccc3c4c(ccc(c24)C1=O)C(=O)N(C)C3=O` [Compound 3], the MIC [2] is reported as greater than 25 µg/mL, the MIC [7] is reported as 6.25 µg/mL (≈ 21.2 µM) and the MIC [10] is reported as greater than 25 µg/mL. The MIC [11] was greater than 25 µg/mL.

For `O=C1c2ccc3c4c(ccc(c24)C(=O)N1c1nccs1)C(=O)N(c1nccs1)C3=O` [Compound 4], the MIC [2] was greater than 25 µg/mL, the MIC [7] was 2.5 µg/mL (≈ 5.78 µM) and the MIC [10] was greater than 25 µg/mL. For the same compound, the MIC [11] was greater than 25 µg/mL.

For `O=C1c2ccccc2C(=O)N1N1C(=O)c2ccc3c4c(ccc(c24)C1=O)C(=O)N(N1C(=O)c2ccccc2C1=O)C3=O` [Compound 5], the MIC [2] was greater than 25 µg/mL, the MIC [7] was 12.5 µg/mL (≈ 22.5 µM) and the MIC [10] was greater than 25 µg/mL. It also gave an MIC [11] greater than 25 µg/mL.

For `CC(=O)OCCN1C(=O)c2ccc3c4c(ccc(c24)C1=O)C(=O)N(CCOC(C)=O)C3=O` [Compound 6], the MIC [2] was greater than 25 µg/mL, the MIC [7] was 0.31 µg/mL (≈ 0.707 µM) and the MIC [10] was greater than 25 µg/mL. It also gave an MIC [11] greater than 25 µg/mL.

`CN(C)CCN1C(=O)c2ccc3c4c(ccc(c24)C1=O)C(=O)N(CCN(C)C)C3=O` [Compound 7] gave an MIC [2] greater than 25 µg/mL, an MIC [7] of 0.39 µg/mL (≈ 0.955 µM) and an MIC [10] greater than 25 µg/mL. It also gave an MIC [11] greater than 25 µg/mL.

In the case of `Cc1ncc([N+](=O)[O-])n1CCO` [Metronidazole, metronidazole], the MIC [1] is reported as 3.13 µg/mL (≈ 18.3 µM), the MIC [2] is reported as greater than 25 µg/mL and the MIC [3] is reported as greater than 25 µg/mL. It also gave an MIC [4] of 0.78 µg/mL (≈ 4.56 µM), an MIC [5] greater than 25 µg/mL and an MIC [6] greater than 25 µg/mL. The MIC [7] was greater than 25 µg/mL, the MIC [9] was 0.78 µg/mL (≈ 4.56 µM) and the MIC [10] was greater than 25 µg/mL. It also gave an MIC [11] greater than 25 µg/mL and an MIC [12] greater than 25 µg/mL.

`CN(C)[C@@H]1C(O)=C(C(N)=O)C(=O)[C@@]2(O)C(O)=C3C(=O)c4c(O)cccc4[C@@](C)(O)[C@H]3C[C@@H]12` [Tetracycline, tetracycline] gave an MIC [10] greater than 25 µg/mL, an MIC [11] of 1.56 µg/mL (≈ 3.51 µM) and an MIC [12] of 3.13 µg/mL (≈ 7.04 µM).
